# How the values were obtained:
# [1] = molecular target: BRD4 domain 1 (Homo sapiens, UniProt O60885); assay: Kd determination of inhibitors binding to BRD4 domain 1 (Epic label-free platform); details: direct binding to immobilized BRD4 domain 1; tripling dilution series from 20µM; about 1hr equilibrium; rounded to whole number; read-out: Epic Kd BRD41
# Protocol: (§1) Kd Determination of Inhibitors Binding to BRD4 Domain 1 and Domain 2
# (§2) The binding of small molecule inhibitors to either BRD4 domain 1 or domain 2 were determined using the Epic, high-throughput, label-free platform (Corning, Lowell, MA). The Epic instrument incorporates an evanescent waveguide sensor within each well of its proprietary 384-well microplates. Direct binding of inhibitors to BRD4 immobilized onto the microplate well surface can be detected by exposing the waveguide to a broadband light source. The resulting resonant wavelength shift (measured in picometers (pm)) is proportional to the mass bound to the surface. Epic biochemical plates (Corning, Lowell, MA) were activated by adding 15 µL/well of 200 mM EDC and 50 mM Sulfo-NHS (Pierce Thermo Scientific, Rockford, IL) and incubated for 60 minutes at room temperature. Plates were washed three times with MilliQ water and dried by centrifugation (1 minute at 400 rpm). BRD4 immobilization was accomplished by resuspending the protein at a concentration of 150 µg/mL in 20 mM HEPES (pH 7) and adding 10 µL/well. […] Compound/inhibitor binding was determined by calculating difference between the baseline (first read) and second read. The resulting binding response was fitted to a single site binding isotherm in order to determine an equilibrium dissociation constant (Kd).
# [2] = molecular target: BRD4 domain 2 (Homo sapiens, UniProt O60885); assay: Kd determination of inhibitors binding to BRD4 domain 2 (Epic label-free platform); details: direct binding to immobilized BRD4 domain 2; tripling dilution series from 20µM; about 1hr equilibrium; rounded to whole number
# Protocol: as §1, §2
Kd [1],Kd [2],Compound
2230 nM,1900 nM,"Cc1noc(C)c1-c1cc(S(=O)(=O)NC2CCCC2)c2cc(N3CCCCC3)c(=O)[nH]c2c1 [Compound 60, N-cyclopentyl-7-(3,5-dimethylisoxazol-4-yl)-2-oxo-3-(piperidin-1-yl)-1,2-dihydroquinoline-5-sulfonamide]"
1020 nM,645 nM,"Cc1noc(C)c1-c1cc(S(=O)(=O)NC2CCCC2)c2cc(N(C)C)c(=O)[nH]c2c1 [Compound 61, N-cyclopentyl-3-(dimethylamino)-7-(3,5-dimethylisoxazol-4-yl)-2-oxo-1,2-dihydroquinoline-5-sulfonamide]"
850 nM,526 nM,"CNc1cc2c(S(=O)(=O)NC3CCCC3)cc(-c3c(C)noc3C)cc2[nH]c1=O [Compound 62, N-cyclopentyl-7-(3,5-dimethylisoxazol-4-yl)-3-(methytamino)-2-oxo-1,2-dihydroquinoline-5-sulfonamide]"
14600 nM,9560 nM,"COC[C@H]1CCC[C@H]1NS(=O)(=O)c1cc(-c2c(C)noc2C)cc2ncccc12 [Compound 63, 7-(3,5-dimethylisoxazol-4-yl)-N-((1R,2S)-2-(methoxymethyl)cyclopentyl)quinoline-5-sulfonamide]"
4850 nM,3210 nM,"Cc1noc(C)c1-c1cc(S(=O)(=O)NC2CCCC2)c2cc(N3CCOC3=O)c(=O)[nH]c2c1 [Compound 64, N-cyclopentyl-7-(3,5-dimethylisoxazol-4-yl)-2-oxo-3-(2-oxooxazolidin-3-yl)-1,2-dihydroquinoline-5-sulfonamide]"
981 nM,546 nM,"Cc1noc(C)c1-c1cc(S(=O)(=O)NC2CCCC2)c2cc(N3CCN(C)CC3)c(=O)[nH]c2c1 [Compound 65, N-cyclopentyl-7-(3,5-dimethylisoxazol-4-yl)-3-(4-methylpiperazin-1-yl)-2-oxo-1,2-dihydroquinoline-5-sulfonamide]"
520 nM,421 nM,"Cc1noc(C)c1-c1cc(S(=O)(=O)NC2CCCC2)c2cc(NC3CCN(C)CC3)c(=O)[nH]c2c1 [Compound 66, N-cyclopentyl-7-(3,5-dimethylisoxazol-4-yl)-3-((1-methylpiperidin-4-yl)amino)-2-oxo-1,2-dihydroquinoline-5-sulfonamide]"
444 nM,404 nM,"Cc1noc(C)c1-c1cc(S(=O)(=O)NC2CCCC2)c2cc(NCc3cccnc3)c(=O)[nH]c2c1 [Compound 67, N-cyclopentyl-7-(3,5-dimethylisoxazol-4-yl)-2-oxo-3-((pyridin-3-ylmethyl)amino)-1,2-dihydroquinoline-5-sulfonamide]"
13800 nM,2920 nM,"Cc1noc(C)c1-c1cc(S(=O)(=O)NC2CC2)c2ccc(=O)[nH]c2c1 [Compound 68, N-cyclopropyl-7-(3,5-dimethylisoxazol-4-yl)-2-oxo-1,2-dihydroquinoline-5-sulfonamide]"
7270 nM,1190 nM,"Cc1noc(C)c1-c1cc(S(=O)(=O)NC2CCCC2)c2cc(C(N)=O)c(=O)[nH]c2c1 [Compound 69, 5-(N-cyclopentylsulfamoyl) -7-(3,5-dimethylisoxazol-4-yl)-2-oxo-1,2-dihydroquinoline-3-carboxamide]"
8230 nM,1960 nM,"Cc1noc(C)c1-c1cc(S(=O)(=O)NC2CCCC2)c2cc(C(=O)O)c(=O)[nH]c2c1 [Compound 70, 5-(N-cyclopentylsulfamoyl) -7-(3,5-dimethylisoxazol-4-yl)-2-oxo-1,2-dihydroquinoline-3-carboxylic acid]"
4890 nM,4150 nM,"Cc1noc(C)c1-c1cc(S(=O)(=O)N[C@@H]2CCC[C@H]2C(=O)N2CCN(C)CC2)c2cccnc2c1 [Compound 71, 7-(3,5-dimethylisoxazol-4-yl)-N-((1R,2R)-2-(4-methylpiperazine-1-carbonyl)cyclopentyl) quinoline-5-sulfonamide]"
1440 nM,2330 nM,"Cc1noc(C)c1-c1cc(S(=O)(=O)N[C@@H]2CCC[C@H]2C(=O)NCCN)c2cccnc2c1 [Compound 72, (1R,2R)-N-(2-aminoethyl)-2-(7-(3,5-dimethylisoxazol-4-yl)quinoline-5-sulfonamido)cyclopen tanecarboxamide]"
> 20000 nM,16700 nM,"CC(=O)NCCNC(=O)[C@@H]1CCC[C@H]1NS(=O)(=O)c1cc(-c2c(C)noc2C)cc2ncccc12 [Compound 73, (1R,2R)-N-(2-acetamidoethyl)-2-(7-(3,5-dimethylisoxazol-4-yl)quinoline-5-sulfonamido)cyclopen tanecarboxamide]"
14100 nM,17500 nM,"Cc1noc(C)c1-c1cc(S(=O)(=O)NCCN)c2cccnc2c1 [Compound 74, N-(2-aminoethyl)-7-(3,5-dimethylisoxazol-4-yl)quinoline-5-sulfonamide]"
10700 nM,8940 nM,"Cc1noc(C)c1-c1cc(S(=O)(=O)NC2CCCC2)c2cc(C(=O)N(C)C)c(=O)[nH]c2c1 [Compound 75, 5-(N-cyclopentylsulfamoyl) -7-(3,5-dimethylisoxazol-4-yl)-N,N-dimethyl-2-oxo-1,2-dihydroquinoline-3 - carboxamide]"
416 nM,497 nM,"Cc1noc(C)c1-c1cc(S(=O)(=O)NC2CCCC2)c2cc(NCC3CC3)c(=O)[nH]c2c1 [Compound 76, N-cyclopentyl-3-((cyclopropylmethyl)amino)-7-(3,5-dimethylisoxazol-4-yl)-2-oxo-1,2-dihydroquinoline-5-sulfonamide]"
896 nM,610 nM,"Cc1noc(C)c1-c1cc(S(=O)(=O)NC2CCCC2)c2cc(NC(C)C)c(=O)[nH]c2c1 [Compound 77, N-cyclopentyl-7-(3,5-dimethylisoxazol-4-yl)-3-(isopropylamino)-2-oxo-1,2-dihydroquinoline-5-sulfonamide]"
744 nM,392 nM,"Cc1noc(C)c1-c1cc(S(=O)(=O)NC2CCCC2)c2cc(NCCN)c(=O)[nH]c2c1 [Compound 78, 3-((2-aminoethyl)amino)-N-cyclopentyl-7-(3,5-dimethylisoxazol-4-yl)-2-oxo-1,2-dihydroquinoline-5-sulfonamide]"
1350 nM,607 nM,"Cc1noc(C)c1-c1cc(S(=O)(=O)NC2CCCC2)c2cc(NCC(F)F)c(=O)[nH]c2c1 [Compound 79, N-cyclopentyl-3-((2,2-difluoroethyl)amino)-7-(3,5-dimethylisoxazol-4-yl)-2-oxo-1,2-dihydroquinoline-5-sulfonamide]"
1730 nM,1390 nM,"Cc1noc(C)c1-c1cc(S(=O)(=O)NC2CC2)c2ccc(N3CCNCC3)nc2c1 [Compound 80, N-cyclopropyl-7-(3,5-dimethylisoxazol-4-yl)-2-(piperazin-1-yl)quinoline-5-sulfonamide]"
13700 nM,> 20000 nM,"Cc1noc(C)c1-c1cc(S(=O)(=O)N[C@@H](CC(C)(C)C)C(=O)N2CCNCC2)c2cccnc2c1 [Compound 81, (S)-N-(4,4-dimethyl-1-oxo-1-(piperazin-1-yl)pentan-2-yl)-7-(3,5-dimethylisoxazol-4-yl)quinoline-5-sulfonamide]"
1920 nM,1900 nM,"Cc1noc(C)c1-c1cc(S(=O)(=O)N[C@@H]2CCC[C@H]2O)c2ccc(=O)[nH]c2c1 [Compound 82, 7-(3,5-dimethylisoxazol-4-yl)-N-((1R,2R)-2-hydroxycyclopentyl)-2-oxo-1,2-dihydroquinoline-5-sulfonamide]"
16700 nM,16600 nM,Cc1noc(C)c1-c1cc(S(=O)(=O)NC2CC2(C)C)c2cccnc2c1 (stereo not shown) [Compound 83]
2000 nM,18200 nM,"Cc1noc(C)c1-c1cc(S(=O)(=O)NC2(C(F)(F)F)CC2)c2cccnc2c1 [Compound 84, 7-(3,5-dimethylisoxazol-4-yl)-N-(1-(trifluoromethyl)cyclopropyl)quinoline-5-sulfonamide]"
483 nM,429 nM,"COCCNc1cc2c(S(=O)(=O)N[C@@H]3CCC[C@H]3O)cc(-c3c(C)noc3C)cc2[nH]c1=O [Compound 85, 7-(3,5-dimethylisoxazol-4-yl)-N-((1R,2R)-2-hydroxycyclopentyl)-3-((2-methoxyethyl)amino)-2-oxo-1,2-dihydroquinoline-5-sulfonamide]"
3480 nM,2460 nM,"Cc1noc(C)c1-c1cc(S(=O)(=O)NC2CCCC2)c2nccnc2c1 [Compound 86, N-cyclopentyl-7-(3,5-dimethylisoxazol-4-yl)quinoxaline-5-sulfonamide]"
2200 nM,1340 nM,"Cc1noc(C)c1-c1cc(S(=O)(=O)NC2CCCC2)c2ncc(=O)[nH]c2c1 [Compound 87, N-cyclopentyl-7-(3,5-dimethylisoxazol-4-yl)-2-oxo-1,2-dihydroquinoxaline-5-sulfonamide]"
1060 nM,943 nM,"Cc1noc(C)c1-c1cc(S(=O)(=O)NC2CCCC2)c2cc(NCCN(C)C)c(=O)[nH]c2c1 [Compound 88, N-cyclopentyl-3-((2-(dimethylamino)ethyl)amino)-7-(3,5-dimethylisoxazol-4-yl)-2-oxo-1,2-dihydroquinoline-5-sulfonamide]"
